What all share (assay): Minimum Inhibitory Concentration (MIC), agar dilution, standard strains
Assay [1] deals with S. aureus 241. Type of assay: cell-based, Staphylococcus aureus. The note with it: Staphylococcus aureus, 241, 20 h, read-out: Minimum Inhibitory Concentration (MIC), S. aureus 241.
Assay [2] relates to S. aureus 77. It is filed as cell-based, Staphylococcus aureus. The note with it: for MIC: read-out: Minimum Inhibitory Concentration (MIC), S. aureus 77.
In assay [3] the test system is S. aureus K311. It is filed as cell-based, Staphylococcus aureus. The note with it: Table 2; Mueller-Hinton agar, 37° C., 20 hours.
Assay [4] deals with E. faecalis L239. Type of assay: cell-based. The note with it: Enterococcus faecalis, L239, 20 h, read-out: Minimum Inhibitory Concentration (MIC), E. faecalis L239.
Assay [5] deals with S. epidermidis R005. It is filed as cell-based. The note with it: for MIC: Staphylococcus epidermidis, read-out: Minimum Inhibitory Concentration (MIC), S. epidermidis R005.
The subject of assay [6] is E. faecalis EFS004. Type of assay: cell-based. The note with it: Table 2; Mueller-Hinton agar, 37° C., 20 hours.
In assay [7] the test system is Staphylococcus aureus giorgio. Type of assay: cell-based. The note with it: for Minimum Inhibitory Concentration (MIC), S. aureus giorgio: Table 2, Mueller-Hinton agar, 37° C., 20 hours.
The mark [8] stands for this setting: Table 2, Mueller-Hinton agar, 37° C., 20 hours.

Converted amounts (≈) assume the structure as drawn. Like-named read-outs stand apart in the source and are kept apart here.

As for `CN[C@H](CC(C)C)C(=O)N[C@H]1C(=O)N[C@@H](CC(N)=O)C(=O)N[C@H]2C(=O)N[C@H]3C(=O)N[C@H](C(=O)N[C@H](C(=O)O)c4cc(O)cc(O)c4-c4cc3ccc4O)[C@H](O)c3ccc(c(Cl)c3)Oc3cc2cc(c3O[C@@H]2O[C@H](CO)[C@@H](O)[C@H](O)[C@H]2O[C@H]2C[C@](C)(N)[C@H](O)[C@H](C)O2)Oc2ccc(cc2Cl)[C@H]1O` [Vancomycin, vancomycin, reference compound], the MIC worked out at 2 µg/mL (≈ 1.38 µM) in assay [1]; 1 µg/mL (≈ 0.69 µM) in assay [2] (Staphylococcus aureus, 77, 20 h); 2 µg/mL (≈ 1.38 µM) in assay [4]; 1 µg/mL (≈ 0.69 µM) in assay [5] (R005, 20 h); 1 µg/mL (≈ 0.69 µM) in assay [7] (Staphylococcus aureus, 20 h, read-out: Minimum Inhibitory Concentration (MIC), Staphylococcus aureus giorgio). For the same compound, the “Minimum Inhibitory Concentration (MIC), S. aureus 77” value in assay [2] (setting [8]) is recorded as 1 :g/ml. Further, the “Minimum Inhibitory Concentration (MIC), S. aureus K311” value in assay [3] is recorded as 2 :g/ml. Moreover, the “Minimum Inhibitory Concentration (MIC), S. epidermidis R005” value in assay [5] (setting [8]) is 1 :g/ml. The “Minimum Inhibitory Concentration (MIC), E. faecalis EFS004” value in assay [6] is on record as 2 :g/ml. Further, the “Minimum Inhibitory Concentration (MIC), S. aureus giorgio” value in assay [7] was 1 :g/ml.

As for `Nc1nc(O)cc(SCSC2=C(C(=O)O)N3C(=O)[C@@H](NC(=O)CSc4cc(Cl)nc(Cl)c4)[C@H]3SC2)n1` [Example I-28, (6R,7R)-3-({[(2-amino-6-hydroxy-4-pyrimidinyl)sulfanyl]methyl}sulfanyl)-7-({2-[(2,6-dic hloro-4-pyridinyl)sulfanyl]acetyl}amino)-8-oxo-5-thia-1-azabicyclo[4.2.0]-oct-2-ene-2-car boxylic acid], the MIC in assay [2] (Staphylococcus aureus, 77, Table 2, Mueller-Hinton agar, 37° C., 20 hours) is 0.25 µg/mL (≈ 0.411 µM); in assay [5] (R005, Table 2, Mueller-Hinton agar, 37° C., 20 hours) it was 0.25 µg/mL (≈ 0.411 µM). In assay [3], the “Minimum Inhibitory Concentration (MIC), S. aureus K311” value is on record as 0.5 :g/ml. In assay [6], the “Minimum Inhibitory Concentration (MIC), E. faecalis EFS004” value is given as 1 :g/ml. Moreover, in assay [7], the “Minimum Inhibitory Concentration (MIC), S. aureus giorgio” value is 0.031 :g/ml.

The values are drawn from US20030166922A1, “Novel cephalosporin compounds and process for preparing the same” (priority 2000, published 2003).
